Assay results: patent US20160002316A1, “SERPINS: METHODS OF THERAPEUTIC BETA-CELL REGENERATION AND FUNCTION” (SANOFI, priority 2013, published 2016)

Columns and labels:
[1] = test system: human islet β cells; experiment: Human islet studies, Ki67+ insulin+ cells; assay type: cell-based; conditions: human islets, 24 hr
Protocol: Human islets were obtained from the Integrated Islet Distribution Program. All studies and protocols used were approved by the Joslin Diabetes Center's Committee on Human Studies (CHS#5-05). Upon arrival, islets were cultured overnight in Miami Media #1A (Cellgro). The islets were then starved in Final Wash/Culture Media (Cellgro, Manassas, Va.) for 3 hr prior to stimulation with serum (diluted to 10% v/v), LECM (diluted to 10% v/v), or HCM (diluted to 50% v/v) or Miami Media #1A supplemented with Sivelestat or GW311616A for 24 hr. Islets were used for immunostaining studies as described (El Ouaamari, et al., 2013).
Pancreases and islets were analyzed by immunostaining using anti-Ki67 (BD), anti-insulin (Abcam, Cambridge, Mass.), or anti-glucagon (Sigma-Aldrich, St. Louis, Mo.) antibodies. Quantification of replicating β- and α-cells was performed as described previously (El Ouaamari, et al., 2013).
In all experiments, cell counting was manually performed in a blinded fashion by a single observer. BrdU+ or Ki67+ β cells were assessed by immunofluorescence microscopy. Insulin+ cells showing nuclear DAPI staining were considered as β cells. Insulin+ cells showing nuclear colocalized staining for DAPI+ and Ki67+(or BrdU+) were counted as proliferating β cells. […]

[2] = test system: primary mouse islets β-cells; experiment: Mouse islets cultured with recombinant SerpinB1, ovalbumin or elastase inhibitors, Ki67 immunostaining; assay type: cell-based; conditions: for mouse islet β-cell proliferation in vitro: Sivelestat (50 μg/ml) or GW311616A (100 μg/ml), FIG. 25 C
Protocol: Five to six-week old male mouse islets were cultured in the presence of different molecules for 48 h. Islet β-cell replication was assessed by Ki67 immunostaining studies. A) Representative images of islets stimulated with 100 or 1000 ng/ml of human recombinant SerpinB1. B) Quantification of Ki67+ insulin+ cells in islets stimulated with 1 to 1000 ng/ml of rSerpinB1 or 1000 ng/ml of ovalbumin (OVA). C) Representative images (left panel) and quantification (right panel) of Ki67+ insulin+ islet cells stimulated with Sivelestat (50 μg/ml) or GW311616A (100 μg/ml). D) Representative images of human islets stimulated for 24 hours with Sivelestat or GW311616A or control conditions.
To test whether SerpinB1 is a β-cell growth factor, we cultured freshly isolated primary mouse islets in presence of various doses of recombinant human SerpinB1 or ovalbumin (SerpinB14) and evaluated β-cell proliferation by Ki67 immunofluorescent staining (known to those of ordinary skill in the art).
To address whether SerpinB1 acts directly to stimulate β-cell proliferation, we cultured mouse islets in the presence of various doses of human recombinant SerpinB1 and a control (ovalbumin), and evaluated β-cell proliferation by Ki67 immunofluorescence staining (FIG. 21 A).
(§1) A major substrate of SerpinB1 is neutrophil elastase. To investigate whether the proliferative action of SerpinB1 is mediated by antagonizing neutrophil elastase activity, we assessed the ability of the neutrophil elastase inhibitor, Sivelestat (Sivelestat is the International Nonproprietary Name (INN) as given by the World Health Organization (WHO); the chemical name is: N-{2-[({4-[(2,2-dimethylpropanoyl)oxy]phenyl}sulfonyl)amino]benzoyl}glycine), to stimulate islet β-cell proliferation in vitro.

[3] = test system: human (EndoC-βH1) β-cells; experiment: EndoC-βH1 cells treated with Sivelestat, Ki67; assay type: cell-based; conditions: 100 μg/ml
Excerpt: as §1

[4] = test system: islet β-cells; experiment: Continuous infusion of Sivelestat by osmotic pump for 2 weeks, β-cell replication; assay type: in vivo, mouse; conditions: 2-week infusion
Protocol: (§2) Five to six-week old mice were administrated with Sivelestat or GW311616A for 2 weeks. Islet β-cell and α-cell replication was assessed by immunostaining. A) Schematic of the experimental protocol of Sivelestat administration. B) Quantification of pancreatic sections harvested from animals stimulated with Sivelestat and immunostained for insulin/BrdU/DAPI or glucagon/BrdU/DAPI. C) Schematic of the experimental protocol of GW311616A delivery. D) Quantification of pancreatic sections dissected from GW311616A-treated males and immunostained for insulin/BrdU/DAPI or glucagon/BrdU/DAPI.
Five to six-week old male mice were continuously infused for 2 weeks with vehicle or Sivelestat at 150 or 300 μg/kg/day. Mice were injected during the second week with BrdU (100 mg/kg Body weight) and sacrificed 5 hour after last injection of BrdU. Pancreases were harvested for morphometric studies. A-B) Representative images and quantification of nuclei BrdU+ in insulin+ cells. C-D) Representative images and quantification of nuclei pHH3+ in insulin+ cells. E-F) Representative images and quantification of nuclei BrdU+ in glucagon+ cells. […]

[5] = test system: islet β-cells; experiment: Daily oral gavage of GW311616A for 2 weeks, β-cell mass and replication; assay type: in vivo, mouse; conditions: 2 mg/kg/day
Protocol: as §2
Five to six-week old male mice were daily gavaged with GW311616A or vehicle (water) for 2 weeks. Mice were injected during the second week with BrdU (100 mg/kg Body weight) and sacrificed 5 hour after last injection of BrdU. Pancreases and other tissues were harvested for morphometric studies. A) Schematic of the experimental protocol of GW311616 administration. B) Pancreatic sections harvested from animals stimulated with GW311616 were immunostained for insulin/BrdU/DAPI (upper panel) or glucagon/BrdU/DAPI (lower panel). C) Quantification of β-cell mass. D) Quantification of insulin+BrdU+ cells. E) Quantification of glucagon+BrdU+ cells. F-G) Representative images and quantification of nuclei BrdU+ in liver, kidney, spleen, visceral and subcutaneous adipose tissue and skeletal muscle tissue.
To explore whether increased β-cell replication secondary to enhanced SerpinB1 activity can be recapitulated in vivo, we used pharmacological compounds Sivelestat (Kawabata, et al., 1991) and GW311616A (Macdonald, et al., 2001), that are selective inhibitors of elastase, one of the major substrates of SerpinB1. Using osmotic pumps, we delivered a continuous infusion of Sivelestat for a 2-week period followed by evaluating the number of replicating β-cells by BrdU incorporation (FIG. 20A). […] In a second approach we gavaged mice with the NE inhibitor, GW311616A, at a dose of 2 mg/kg/day for 2 weeks (FIG. 20C and FIG. 22 A). […] Moreover, cell proliferation was not increased in extra-pancreatic tissues including liver, skeletal muscle, visceral and subcutaneous adipose tissue, spleen and kidney (FIGS. 22 F & G).
For Sivelestat administration, mice were anesthetized, and osmotic pumps (ALZET) containing 100 μl of either vehicle or Sivelestat (Santa Cruz) were implanted subcutaneously. Sivelestat was dissolved in 50% DMSO and was administered at a dose of 150 or 300 μg/kg/day. Control mice were infused with DMSO 50% alone. GW311616A was administered into mice by daily oral gavage for two weeks. Mice received either GW311616A (2 mg/kg body weight) or vehicle.

CC(C)(C)C(=O)Oc1ccc(S(=O)(=O)Nc2ccccc2C(=O)NCC(=O)O)cc1 [Sivelestat, N-{2-[({4-[(2,2-dimethylpropanoyl)oxy]phenyl}sulfonyl)amino]benzoyl}glycine]
number of replicating insulin-producing cells (Ki67+ insulin+) [1]: significantly higher | mouse islet β-cell proliferation in vitro [2]: directly increased | number of proliferating insulin+ cells ([2]; higher doses, e.g. 10 and 50 μg/ml): substantial increase | β-cell proliferation ([2]; low doses 1 and 5 μg/ml): do not enhance β-cell proliferation | number of Ki67 positive β-cells compared to non-treated cells [3]: increased the number | proliferation of glucagon-producing α-cells ([4]; 300 μg/kg/day): did not significantly alter | effect on β-cells by pHH3 staining [4]: confirmed by pHH3 staining

CC(C)[C@@H]1C(=O)N(S(C)(=O)=O)[C@@H]2CCN(C(=O)/C=C/CN3CCCCC3)[C@H]21.Cl [GW311616A]
number of replicating insulin-producing cells (Ki67+ insulin+) [1]: significantly higher | mouse islet β-cell proliferation in vitro [2]: directly increased | cell proliferation in extra-pancreatic tissues (liver, skeletal muscle, visceral and subcutaneous adipose tissue, spleen, kidney) [5]: not increased | α-cell proliferation by BrdU incorporation [5]: not α-cell proliferation | β-cell mass [5]: significantly enhanced β-cell mass | β-cell proliferation by BrdU incorporation [5]: increased β-cell proliferation

B1: SerpinB1: recombinant human SerpinB1, serine peptidase inhibitor B1, 42 kD protein (protein)
chain: MEQLSSANTRFALDLFLALSENNPAGNIFISPFSISSAMAMVFLGTRGNTAAQLSKTFHFNTVEEVHSRFQSLNADINKRGASYILKLANRLYGEKTYNFLPEFLVSTQKTYGADLASVDFQHASEDARKTINQWVKGQTEGKIPELLASGMVDNMTKLVLVNAIYFKGNWKDKFMKEATTNAPFRLNKKDRKTVKMMYQKKKFAYGYIEDLKCRVLELPYQGEELSMVILLPDDIEDESTGLKKIEEQLTLEKLHEWTKPENLDFIEVNVSLPRFKLEESYTLNSDLARLGVQDLFNSSKADLSGMSGARDIFISKIVHKSFVEVNEEGTEAAAATAGIATFCMLMPEENFTADHPFLFFIRHNSSGSILFLGRFSSP
concentration at which the increase reached statistical significance ([2]; compared to ovalbumin at a similar concentration): 1 µg/mL | Ki67+ insulin+ cells ([2]; various doses (1 to 1000 ng/ml), 48 h): dose-dependent increase

B2: ovalbumin: ovalbumin (SerpinB14), control protein (protein, UniProt P01012 2-386, looked up)
Ovalbumin: GSIGAASMEFCFDVFKELKVHHANENIFYCPIAIMSALAMVYLGAKDSTRTQINKVVRFDKLPGFGDSIEAQCGTSVNVHSSLRDILNQITKPNDVYSFSLASRLYAEERYPILPEYLQCVKELYRGGLEPINFQTAADQARELINSWVESQTNGIIRNVLQPSSVDSQTAMVLVNAIVFKGLWEKAFKDEDTQAMPFRVTEQESKPVQMMYQIGLFRVASMASEKMKILELPFASGTMSMLVLLPDEVSGLEQLESIINFEKLTEWTSSNVMEERKIKVYLPRMKMEEKYNLTSVLMAMGITDVFSSSANLSGISSAESLKISQAVHAAHAEINEAGREVVGSAEAGVDAASVSEEFRADHPFLFCIKHIATNAVLFFGRCVSP
β-cell proliferation (Ki67) ([2]; 1 μg/ml): normal low β-cell proliferation
